This is an account of results in patent US8367727B2, “Method of using abscisic acid to treat diseases and disorders” (priority 2006, dated 2013).

This experiment deals with MCP-1 promoter. The experiment is described as follows: MCP-1 promoter luciferase reporter in 3T3-L1 pre-adipocytes. It counts as cell-based. The conditions noted are these: GW9662 30 μM.

Procedure: 3T3-L1 cells (American Type Culture Collection, Manassas, Va.) were grown in 24-well plates in DMEM high glucose medium (Invitrogen, Carlsbad, Calif.) containing 10% fetal bovine serum (FBS) until 60-70% confluence. Before transfection, the medium was changed to 1% FBS. The cells cultured in 24-well plates were co-transfected with 0.8 μg plasmid DNA and 1 ng of pRL reporter control plasmid per well using F-1 transfection reagents (Targeting Systems, Santee, Calif.) according to the manufacturer's protocol. Transfection efficiencies were determined by cotransfecting the cells with a pcDNA™ 3.1/His/lacZ control vector at 24 h. The transfected cells were then treated with either a racemic ABA mixture (12.5 μM; Sigma) or rosiglitazone (1 μM; Cayman Chemicals, Ann Arbor, Mich.) for 24 hours. Designated wells were also treated with the PPAR γ antagonist GW9662 (30 μM; Cayman Chemicals). Transfected cells were harvested in reporter lysis reagent. Luciferase activity, normalized to pRL activity in the cell extracts was determined by using the dual luciferase reporter assay system (Promega, Madison, Wis.) in a TD-20/20 Single-Tube Luminometer (Turner Biosystems, Sunnyvale, Calif.). Relative luciferase activity (RLA) was calculated as a ratio of the chemiluminescence 10 seconds after the Luciferase Assay Reagent II (Promega) was added over the chemiluminescence 10 seconds after the Stop&Glo Reagent (Promega).
To further examine the effect of ABA on MCP-1 transactivation, 3T3-L1 preadipocytes were transfected with a MCP-1 promoter luciferase reporter construct and also cotransfected with a pCMX PPAR γ expression plasmid to increase endogenous PPAR γ activity. Cells were then treated with ABA (12.5 μM), rosiglitazone (1 μM), the PPAR γ antagonist GW9662 (30 μM), or a combination of agonist and inhibitor.

For the molecule `O=C(Nc1ccccc1)c1cc([N+](=O)[O-])ccc1Cl` [GW9662, reference compound], the “inhibition of the effects of ABA and rosiglitazone on MCP-1 promoter activity” value was “inhibited”.
